Measurements published in patent US9169481B2, “Cell-mediated directed evolution” (priority 2006, dated 2015).
“And” between values parts separate entries of the source, which are not always exact repeats. Equal values may be shown once.

What was measured:
[1] = tested on: Erwinia carotovora cellulase CelA (Cellulase A), catalytic domain, parent; experiment: Steady-state kinetics of pNPC hydrolysis (release of p-nitrophenol), CelA; assay type: biochemical; conditions: pH 7, room temperature
Source text: The DNA shuffling vector, pPPY2148, was constructed by digesting p425Met25 (ATCC) with HindIII and PstI and introducing an 800 bp stuffer flanked by SfiI sites. The catalytic domain of four family 5 cellulases with 77-90% sequence identity, E. carotovora CelN (Olsen et al., 1996, Biotechnology (N Y) 14:71-76), CelVI (Mae and Palva, 1995, Mol Gen Genet. 247:17-26), CelA (Park et al., 1997, Biochem Biophys Res Commun. 241:636-641) and CelT (cloned from the E. carotovora subs. atroceptica (Bell et al., 2004, Proc Natl Acad Sci USA. 101: 11105-11110) genomic DNA) were cloned into pPY2148 to create plasmids pPPY2230, pPPY2232, pPPY2234 and pPPY2236 respectively. A ^6His-tag was added at the C-terminus of the four parent genes to facilitate protein purification after selection. The catalytic domain of these cellulases was identified by sequence comparison with the catalytic domain of Bacillus agaradhaerens Cel5A, which has 68% sequence identity at the amino acid level with the parent genes and which three dimensional X-ray structure is available (Davies et al., 1998, Biochemistry 37: 1926-1932; Davies et al., 1998, Biochemistry 37: 11707-11713; Varrot et al., 2000, J Mol Biol. 297: 819-828; Varrot et al., 2001, Acta Crystallogr D Biol Crystallogr. 57: 1739-1742; Varrot and Davies, 2003, Acta Crystallogr D Biol Crystallogr. 59: 447-452). The cellulase genes were shuffled using standard procedures with slight variations (Zhao and Arnold, 1997, Nucleic Acids Res. 25: 1307-1308). […]
Ten colonies selected on day 8 and 9 were characterized in vitro using para-nitrophenyl cellobioside (pNPC) as a substrate. […] Protein concentration was determined using the extinction coefficient of the parent genes ε=76890 and absorption at A280. To determine the kinetic constants for the hydrolysis of pNPC, the cellulase chimeras were incubated at room temperature in phosphate buffer (25 mM K2HPO4, 100 mM NaCl, pH=7) containing various concentrations of the substrate, and the release of p-nitrophenol (εpH=7=4000M^−1 cm^−1, A420) was recorded continuously in a SpectraMax Plus 384 spectrophotometer.
The three starting cellulases and the improved cellulase variants were subcloned into the E. coli T7 vector, pAED4, between NdeI and HindIII sites to give vectors pPPY2256 (CelN), pPPY2258 (CelA), pPPY2257 (CelV), pPPY2291 (Cel—3.7), and pPPY2292 (Cel—5.7). […] Protein concentration was determined using the extinction coefficient of the starting genes (ε=76670) and absorption at 280 nm. […] The release of p-nitrophenol (εpH 7=4000M−1 cm−1, A420) was recorded continuously in a SpectraMax Plus 384 spectrophotometer at 420 nm.

[2] = tested on: Erwinia carotovora shuffled cellulase variant Cellulase 3, SEQ ID NO:8; experiment: Steady-state kinetics of pNPC hydrolysis, Cellulase 3; assay type: biochemical; conditions: pH 7, room temperature
Procedure: (§1) Ten colonies selected on day 8 and 9 were characterized in vitro using para-nitrophenyl cellobioside (pNPC) as a substrate. The cellulase chimeras were amplified from the shuffling vector using primers PPY100 and PPY103 and subcloned into the T7-expression vectors pAED4 between NdeI and HindIII sites. The cellulase chimeras were over expressed in E. coli and purified using a Nickel affinity column. Protein concentration was determined using the extinction coefficient of the parent genes ε=76890 and absorption at A280. To determine the kinetic constants for the hydrolysis of pNPC, the cellulase chimeras were incubated at room temperature in phosphate buffer (25 mM K2HPO4, 100 mM NaCl, pH=7) containing various concentrations of the substrate, and the release of p-nitrophenol (εpH=7=4000M^−1 cm^−1, A420) was recorded continuously in a SpectraMax Plus 384 spectrophotometer.
(§2) The three starting cellulases and the improved cellulase variants were subcloned into the E. coli T7 vector, pAED4, between NdeI and HindIII sites to give vectors pPPY2256 (CelN), pPPY2258 (CelA), pPPY2257 (CelV), pPPY2291 (Cel—3.7), and pPPY2292 (Cel—5.7). The cellulases were purified using Quick spin Ni-NTA affinity column (Qiagen). Protein concentration was determined using the extinction coefficient of the starting genes (ε=76670) and absorption at 280 nm. To determine the kinetic constants for the hydrolysis of pNPC, the cellulase chimeras were incubated at room temperature in phosphate buffer (25 mM K2HPO4, 100 mM NaCl, pH 7) containing seven different concentrations of pNPC ranging from 12 mM to 0.185 mM. The release of p-nitrophenol (εpH 7=4000M−1 cm−1, A420) was recorded continuously in a SpectraMax Plus 384 spectrophotometer at 420 nm.

[3] = tested on: Erwinia carotovora shuffled cellulase variant Cellulase 8, SEQ ID NO:16; experiment: Steady-state kinetics of pNPC hydrolysis, Cellulase 8; assay type: biochemical; conditions: pH 7, room temperature
Procedure: as §1, §2

[4] = tested on: Erwinia carotovora CelN/CelA/CelV shuffled variant Cellulase 1 (CELLVAR2, Colony 2, Cel_3.7), vs CelN: S126N, D157E, Q186L, L193M, V2541, T288A, E295A, G30A …; experiment: Steady-state kinetics of pNPC hydrolysis, Cellulase 1; assay type: biochemical
Procedure: as §1, §2
Cel—3.7 (cellulase 1) contains nine crossovers. […] A homology model of Cel—3.7 (cellulase 1) was made, utilizing the B. agaradherans Cel5A structure (SwissProt: O85465; PDB: 1h5v) with the inhibitor methyl 4,4II,4III,4IV-tetrathio-α-cellopentoside bound to the active site, using Swiss-Model (FIG. 28A). The eight mutations accessible with the homology model map onto the surface of the enzyme, away from the extended carbohydrate binding site.

[5] = molecular target: Erwinia carotovora cellulase CelV (Cellulase V; = CelT, Cellulase T), catalytic domain, parent (Pectobacterium atrosepticum, UniProt Q6D5R0); experiment: Steady-state kinetics of pNPC hydrolysis (release of p-nitrophenol), CelT = CelV; assay type: biochemical; conditions: pH 7, room temperature
Source text: (§3) The DNA shuffling vector, pPPY2148, was constructed by digesting p425Met25 (ATCC) with HindIII and PstI and introducing an 800 bp stuffer flanked by SfiI sites. The catalytic domain of four family 5 cellulases with 77-90% sequence identity, E. carotovora CelN (Olsen et al., 1996, Biotechnology (N Y) 14:71-76), CelVI (Mae and Palva, 1995, Mol Gen Genet. 247:17-26), CelA (Park et al., 1997, Biochem Biophys Res Commun. 241:636-641) and CelT (cloned from the E. carotovora subs. atroceptica (Bell et al., 2004, Proc Natl Acad Sci USA. 101: 11105-11110) genomic DNA) were cloned into pPY2148 to create plasmids pPPY2230, pPPY2232, pPPY2234 and pPPY2236 respectively. A ^6His-tag was added at the C-terminus of the four parent genes to facilitate protein purification after selection. The catalytic domain of these cellulases was identified by sequence comparison with the catalytic domain of Bacillus agaradhaerens Cel5A, which has 68% sequence identity at the amino acid level with the parent genes and which three dimensional X-ray structure is available (Davies et al., 1998, Biochemistry 37: 1926-1932; Davies et al., 1998, Biochemistry 37: 11707-11713; Varrot et al., 2000, J Mol Biol. 297: 819-828; Varrot et al., 2001, Acta Crystallogr D Biol Crystallogr. 57: 1739-1742; Varrot and Davies, 2003, Acta Crystallogr D Biol Crystallogr. 59: 447-452). The cellulase genes were shuffled using standard procedures with slight variations (Zhao and Arnold, 1997, Nucleic Acids Res. 25: 1307-1308). To introduce the shuffled product into the shuffling vector via homologous recombination, 30 bp homology to the shuffling vector was introduced at the 5′ and 3′ end of the shuffled product by carrying an extra amplification step of the shuffling product primers VC1658-VC1659. 7.5 ng of shuffled product ([…] shuffled product molecules assuming each base pair is 330M and the shuffled product was 1000 bp) was used as a template in a 100 ul amplification reaction. The product was purified in a 2% agarose gel.
as §1
(§4) The three starting cellulases and the improved cellulase variants were subcloned into the E. coli T7 vector, pAED4, between NdeI and HindIII sites to give vectors pPPY2256 (CelN), pPPY2258 (CelA), pPPY2257 (CelV), pPPY2291 (Cel—3.7), and pPPY2292 (Cel—5.7). The cellulases were purified using Quick spin Ni-NTA affinity column (Qiagen). Protein concentration was determined using the extinction coefficient of the starting genes (ε=76670) and absorption at 280 nm. […] The release of p-nitrophenol (εpH 7=4000M−1 cm−1, A420) was recorded continuously in a SpectraMax Plus 384 spectrophotometer at 420 nm.

[6] = tested on: Erwinia carotovora shuffled cellulase variant Cellulase 6, SEQ ID NO:12; experiment: Steady-state kinetics of pNPC hydrolysis, Cellulase 6; assay type: biochemical; conditions: pH 7, room temperature
Procedure: as §1, §2

[7] = molecular target: Erwinia carotovora cellulase CelN (Cellulase N), catalytic domain, parent (Pectobacterium atrosepticum, UniProt Q59394); experiment: Steady-state kinetics of pNPC hydrolysis (release of p-nitrophenol), CelN; assay type: biochemical; conditions: pH 7, room temperature
Source text: as §3, §1, §4

[8] = tested on: Erwinia carotovora CelN/CelA/CelV shuffled variant Cellulase 2 (Cel_5.7), vs CelN: A86V, S126N, E154D, T172S, C208R, T262S, A267T, A272T; SEQ ID NO:6; experiment: Steady-state kinetics of pNPC hydrolysis, Cellulase 2; assay type: biochemical
Procedure: as §1, §2
A homology model of Cel—5.7 (cellulase 2) was made, again utilizing the same structure of B. agaradherans Cel5A, using Swiss-Model (FIG. 28b)^38. Four mutations are in the C-terminus loops that compose the extended carbohydrate binding site, while the other 4 map onto the surface of the enzyme. Although mutation T172S is located in C-terminus loop 5, it is 15 Å away from closest hexose ring in the substrate inhibitor. Mutations T262S, A267T, A272T are located in C-terminus loop 8. The mutation T262S is the closest to the substrate inhibitor, 6 Å away from the 6′-OH of the hexose ring in the −3 subsite. […] This mutation is located at the N-terminus of the barrel and points towards the solvent.

[9] = tested on: Erwinia carotovora shuffled cellulase variant Cellulase 7, SEQ ID NO:14; experiment: Steady-state kinetics of pNPC hydrolysis, Cellulase 7; assay type: biochemical; conditions: pH 7, room temperature
Procedure: as §1, §2

[10] = tested on: Erwinia carotovora shuffled cellulase variant Cellulase 5, SEQ ID NO:10; experiment: Steady-state kinetics of pNPC hydrolysis, Cellulase 5; assay type: biochemical; conditions: pH 7, room temperature
Procedure: as §1, §2

[11] = tested on: Erwinia carotovora shuffled cellulase variant Cellulase 4 (CELLVAR1, Colony 1), SEQ ID NO:3; experiment: Steady-state kinetics of pNPC hydrolysis, Cellulase 4; assay type: biochemical; conditions: pH 7, room temperature
Procedure: as §1, §2

[12] = tested on: O=[N+]([O-])c1ccc(O[C@@H]2O[C@H](CO)[C@@H](O[C@@H]3O[C@H](CO)[C@@H](O)[C@H](O)[C@H]3O)[C@H](O)[C@H]2O)cc1; experiment: Steady-state kinetics of pNPC hydrolysis (release of p-nitrophenol), CelT = CelV; assay type: biochemical, Erwinia carotovora; conditions: other: pNPC, pH 7, room temperature
Source text: as §3, §1, §4

[13] = tested on: O=[N+]([O-])c1ccc(O[C@@H]2O[C@H](CO)[C@@H](O[C@@H]3O[C@H](CO)[C@@H](O)[C@H](O)[C@H]3O)[C@H](O)[C@H]2O)cc1; experiment: Steady-state kinetics of pNPC hydrolysis (release of p-nitrophenol), CelN; assay type: biochemical, Erwinia carotovora; conditions: other: pNPC, pH 7, room temperature
Source text: as §3, §1, §4

What does the source list for `O=[N+]([O-])c1ccc(O[C@@H]2O[C@H](CO)[C@@H](O[C@@H]3O[C@H](CO)[C@@H](O)[C@H](O)[C@H]3O)[C@H](O)[C@H]2O)cc1` [pNPC, p-nitrophenyl cellobioside]?
Kcat [1]: 1400 s⁻¹; Kcat/KM [1]: 193000 M⁻¹ s⁻¹; Kcat/Km [1]: 192000 M⁻¹ s⁻¹; Km [1]: 7200 µM; Kcat [2]: 5000 s⁻¹; Kcat/Km [2]: 1.4 × 10^6 sec^−1M^−1 and 1.4 × 10^6 M^−1sec^−1; Km [2]: 3600 µM; Kcat [3]: 840 s⁻¹; Kcat/Km [3]: 200000 M⁻¹ s⁻¹; Km [3]: 4300 µM; Kcat ([4]; pH 7, room temperature): 4300 s⁻¹; Kcat/KM ([4]; pH 7, room temperature): 1.3e+06 M⁻¹ s⁻¹; Kcat/Km ([4]; pH 7, room temperature): 1.4 × 10^6 sec^−1M^−1 and 1.4 × 10^6 M^−1sec^−1; Km ([4]; pH 7, room temperature): 3200 µM; increase in catalytic efficiency over the best starting cellulase, CelN ([4]; relative to CelN): 3.6 fold and 3.7 fold; Kcat [5]: 1100 s⁻¹; Kcat/Km [5]: 240000 M⁻¹ s⁻¹; Kcat [6]: 210 s⁻¹; Kcat/Km [6]: 220000 M⁻¹ s⁻¹; Km [6]: 960 µM and 1000 µM; Kcat [7]: 1300 s⁻¹; Kcat/Km [7]: 370000 M⁻¹ s⁻¹; Kcat ([8]; pH 7, room temperature): 5200 s⁻¹; Kcat/Km ([8]; pH 7, room temperature): 2.1 × 10^6 sec^−1M^−1 and 2.1 × 10^6 M^−1sec^−1; Km ([8]; pH 7, room temperature): 2500 µM and 2470 µM; increase in catalytic efficiency over the best starting cellulase, CelN ([8]; relative to CelN): 5.3 fold and 5.7 fold; Kcat [9]: 110 s⁻¹; Kcat/Km [9]: 8120 M⁻¹ s⁻¹ and 8100 M⁻¹ s⁻¹; Km [9]: 14000 µM; Kcat [10]: 6700 s⁻¹; Kcat/Km [10]: 4.5e+06 M⁻¹ s⁻¹; Km [10]: 1500 µM; Kcat [11]: 16000 s⁻¹; Kcat/KM [11]: 1.2e+07 M⁻¹ s⁻¹; Kcat/Km [11]: 1.1e+07 M⁻¹ s⁻¹; Km [11]: 1300 µM

What does the source list for “Erwinia carotovora cellulase CelV (Cellulase V; = CelT, Cellulase T), catalytic domain, parent (Pectobacterium atrosepticum SCRI1043)”?
Km [12]: 4600 µM; kcat [12]: 1100 s⁻¹; kcat/Km [12]: 237000 M⁻¹ s⁻¹

Which results are given for “Erwinia carotovora cellulase CelN (Cellulase N), catalytic domain, parent (Pectobacterium atrosepticum)”?
Km [13]: 3400 µM; kcat [13]: 1300 s⁻¹; kcat/Km [13]: 374000 M⁻¹ s⁻¹
